From US20230000769A1, “OIL-IN-WATER EMULSION FORMULATIONS FOR DELIVERY OF ACTIVE OR THERAPEUTIC AGENTS” (IMMUNOVACCINE TECHNOLOGIES INC., priority 2019, published 2023)

Test: HPLC analysis of oil (top) and aqueous (bottom) layers of centrifuged O/W emulsions
Type: physicochemical
Conditions: control or Bottom layer-Water; target 8.00 mg/mL
Description: O/W emulsions were prepared by combining the hydrophobic phase (DPX-empty in Montanide™ ISA 51 oil) and the aqueous phase (containing an aqueous phase agent) with 120 passes through a Vygon™ connector.
For analysis by High Performance Liquid Chromatography (HPLC), the O/W emulsion formulations were centrifuged at 15,000 RPM for 30 minutes to separate oil (top) and aqueous (bottom) layers, and samples from both layers were analysed. Samples were prepared using n-Butanol Extraction method (for oil phase) and Total solubilization method (for aqueous phase). n-Butanol Extraction method (for oil phase): To 100 μL of the top layer oil sample 300 μL of 0.1M NaHCO3 and 400 μL of water saturated 1-Butanol were added. Sample was vortexed to mix and centrifuged for 2 mins at 5000 RPM. The bottom layer was taken for analysis. Total solubilization method (for aqueous phase): To 75 μL of the bottom layer aqueous sample, up to 5 mL of mobile phase A was added. The mobile phases used for cyclophosphamide, oligonucleotide and anti-CTLA4 analysis were as follows, Cyclophosphamide: Mobile Phase A: 30% acetonitrile in water; Mobile Phase B: methanol. Oligonucleotide: Mobile Phase A: mix of tris, acetonitrile, water; Mobile Phase B: mix of tris, NaCL, acetonitrile, water. Anti-CTLA4: Mobile Phase A: 0.1% TFA/water; Mobile Phase B: 0.1% TFA/acetonitrile; Mobile Phase C: methanol. […]

## O=P1(N(CCCl)CCCl)NCCCO1 (stereo not shown) [Cyclophosphamide control, N,N-bis(2-chloroethyl)-1,3,2-oxazaphosphinan-2-amine 2-oxide]
  Cyclophosphamide Concentration: 6.76 mg/mL
